Assays:
[1] = Auto-hydrolysis of 4-MU esters; assay type: physicochemical; conditions: 30 μM, AMT assay buffer, 10 mM CHAPS, pH 5.5, 1800 seconds; compared to e.g. butyrate (4-MUB)
[2] = test system: lipase activity in drug substance samples (Product G, B, F) and UF/DF sample of Product D; experiment: 4-MUD lipase assay with or without CHAPS; assay type: biochemical; conditions: 10 mM CHAPS (above CMC) vs without, 30 μM 4-MUD, pH 5.5
Description: First, a surfactant was tested above its CMC (critical micelle concentration). Therefore 10 mM CHAPS were added to the assay. […] The samples tested were drug substance samples comprising Product G, Product B, Product F and a sample following ultrafiltration/diafiltration of Product D, each added at 72 μL per well. […] Without being bound by theory it is hypothesized that a surfactant creates an environment that promotes lipase activity by allowing the rearrangement and opening of the lid or flap, which has been described to cover the active site (Grochulski P, Li Y, Schrag J D, et al. Protein Sci 1994; 3:82-91 and Grochulski P, Bouthillier F, Kazlauskas R J, et al. Biochemistry 1994; 33:3494-500). Therefore, a concentration of 10 mM CHAPS in the final reaction-mix was selected.

[3] = test system: hydrolytic activity of PPL and in BDS B and BDS E; experiment: Comparison of surfactants in 4-MUD lipase assay; assay type: biochemical; conditions: 10 mM CHAPS vs 0.25% Triton X-100 vs 0.25% Triton X-100 and 0.125% gum arabicum, pH 5.5
Description: Therefore, hydrolytic activity of PPL (0.024 mg/ml in the reaction mixture) and in BDS B and BDS E (2.4 mg/ml in the reaction mixture) was measured in ATM buffer, pH 5.5, with either 10 mM CHAPS, 0.25% Triton X-100 or 0.25% Triton X-100 and 0.125% gum arabicum. […] Gum arabicum is an emulsifier and no effect of gum arabicum on the activity has been observed in any of the experiments.

[4] = derivable from literature; cited from earlier work
[5] = test system: hydrolytic activity of an exemplary drug product sample; conditions: NaCl 7.8125-1000 mM, 30 μM 4-MUD, AMT buffer without NaCl, pH 5.5
Description: Therefore, the influence of the ionic strength on the measured hydrolytic activity was tested. Hydrolytic activity of an exemplary drug product sample was measured in the presence of varying concentrations of NaCl (1000 mM-7.8125 mM).

[6] = test system: hydrolytic activity of a drug product sample (Product D); experiment: 4-MUD lipase assay with Orlistat; assay type: biochemical; conditions: Orlistat 7.3 nM-20 μM, 30 μM 4-MUD, AMT buffer pH 5.5
[7] = test system: hydrolytic activity responsible for polysorbate degradation in a drug product sample (Product D); experiment: PS20 degradation in drug product, HPLC-CAD; conditions: 1 μM Orlistat, 0.2 mg/mL PS20, RT, pH 5.5, up to 56 days, vs control (DMSO only)
PPL = biological target: T1, PPL (Sus scrofa, UniProt P00591); conditions: Jahn et al.; cited from earlier work
T1 sequence (P00591 1-450): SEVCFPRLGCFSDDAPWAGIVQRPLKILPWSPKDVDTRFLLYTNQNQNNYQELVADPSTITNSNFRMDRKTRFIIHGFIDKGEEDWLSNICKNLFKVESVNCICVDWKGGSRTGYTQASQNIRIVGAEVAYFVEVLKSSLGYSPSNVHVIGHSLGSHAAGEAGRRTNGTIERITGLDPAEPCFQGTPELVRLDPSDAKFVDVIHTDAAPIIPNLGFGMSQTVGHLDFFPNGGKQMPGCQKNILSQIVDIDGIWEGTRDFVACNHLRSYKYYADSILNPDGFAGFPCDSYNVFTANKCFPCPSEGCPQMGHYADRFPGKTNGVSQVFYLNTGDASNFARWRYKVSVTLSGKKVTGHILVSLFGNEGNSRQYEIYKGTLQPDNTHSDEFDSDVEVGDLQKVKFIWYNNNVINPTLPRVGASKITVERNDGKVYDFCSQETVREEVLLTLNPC

CCCCCCCCCC(=O)Oc1ccc2c(C)cc(=O)oc2c1 [4-MUD, 4-methylumbelliferyl decanoate]
auto-hydrolysis [1]: better resistance to auto-hydrolysis

C[C@H](CCC(=O)NCCC[N+](C)(C)CCCS(=O)(=O)[O-])[C@H]1CC[C@H]2[C@@H]3[C@H](O)C[C@@H]4C[C@H](O)CC[C@]4(C)[C@H]3C[C@H](O)[C@]12C [CHAPS, 3-[(3-cholamidopropyl)dimethylammonio]-1-propanesulfonate]
effect on lipase hydrolysis [2]: lipase hydrolysis was increased | hydrolytic activity compared between surfactants [3]: outperforms Triton X-100 and Triton X-100 and gum arabicum | critical micelle concentration (CMC) [4]: about 6 mM

C[C@H](CCC(=O)NCCC[N+](C)(C)CC(O)CS(=O)(=O)[O-])[C@H]1CC[C@H]2[C@@H]3[C@H](O)C[C@@H]4C[C@H](O)CC[C@]4(C)[C@H]3C[C@H](O)[C@]12C (stereo partly shown) [CHAPSO, 3-([3-Cholamidopropyl)dimethylammonio]-2-hydroxy-1-propanesulfonate]
critical micelle concentration (CMC) [4]: about 8 mM

[Cl-].[Na+] [NaCl]
NaCl concentration at which lipase activity decreased [5]: ≥ 250 mM

CCCCCCCCCCC[C@@H](C[C@@H]1OC(=O)[C@H]1CCCCCC)OC(=O)[C@H](CC(C)C)NC=O [Orlistat]
inhibition of lipase activity [6]: inhibited lipase activity in a concentration dependent manner | degradation of PS20 [7]: reduced degradation of PS20

CCCCCCCCCCCC[N+](C)(C)CCCS(=O)(=O)[O-] [Zwittergent 3-12, n-Dodecyl-N,N-dimethyl-3-ammonio-1-propanesulfonate]
critical micelle concentration (CMC) [4]: 2 to 4 mM

polyethylene glycol tert-octylphenyl ether [Triton X-100]
effect on PPL activity (PPL): de-activating effect

Source: patent publication US20240271180A1, “METHOD FOR DETECTING CONTAMINATING LIPASE ACTIVITY” (BOEHRINGER INGELHEIM INTERNATIONAL GMBH, priority 2020, published 2024)
